Results from US20240091366A1, “NOVEL ACID-SENSITIVE APTAMER TRIPTOLIDE CONJUGATE AND APPLICATIONS” (priority 2022, published 2024).
Values joined by “and” are separate entries in the source; they are usually repeats but may differ in a detail not shown here. Equal values may be shown once.

How the values were obtained:
[1] = system: tumor cells; details: background art; cited from earlier work
[2] = MTT assay, cytotoxicity on normal cells; assay type: cell-based, human; details: 48 h
Method: (§1) The same materials as those in Part II above are not repeated here, in addition to the following: human normal hepatocytes LO2, human embryonic kidney cells HEK293 were purchased from the Shanghai Cell Bank of the Chinese Academy of Sciences and preserved in our laboratory.
(§2) Take the […] LO2 and HEK293 cell lines from the liquid nitrogen tank, place them in a 37° C. water bath, wait for the frozen cells to melt into cell suspension, centrifuge the cells at 1000 r/min for 3 min, discard the supernatant, add 1 ml of fresh complete medium containing 10% fetal bovine serum and 1% double antibody to mix the cells, then add 5 ml of medium, gently and repeatedly blowing the cells with a pipette gun to make them mix well. Then add 5 ml of medium, blow the cells gently and repeatedly with a pipette gun to mix them well, and finally transfer the cell suspension to a […] and label the cell name, cell number, date of resuscitation and the operator's name, and place it in a cell culture incubator for cultivation. (HEK293 cell line was cultured with DMEM medium, LO2 cell line was cultured with RPMI1640 medium)
(§3) Take LO2 and HEK293 cells with good growth status, remove the medium, add 1 ml of sterile PBS to wash, add 1.5 ml of trypsin to digest the cells, about 2 min later the cells become round and fall off, add 1.5 ml of medium to terminate the digestion, transfer it to centrifugal tube, centrifuge at 1000 r/min for 3 min, discard the supernatant, add 1 ml of fresh medium to resuspend, then add fresh medium for 1:3 distribution to other culture dishes, and label the date of transmission and the number of generations. Place in the cell culture incubator for cultivation.
(§4) Take LO2 and HEK293 cells with good growth status, by the same operation as the cell passaging experiment, after cell resuspension, cell counting with hemocyte counting plate, with 3000 cells/well, plant in 96-well plate, after 24 h of cell culture, remove the original medium, add medium containing different concentrations of drugs and continue to cultivate for 48 hours. After 24 h of cell culture, the original medium was removed and the medium containing different concentrations of drugs was added to continue the culture for 48 hours. […] The above steps were repeated three times.

[3] = system: human embryonic kidney cells HEK293; test: MTT assay, cytotoxicity on normal cells; assay type: cell-based
Method: as §1, §2, §3, §4

[4] = system: human normal hepatocytes LO2; test: MTT assay, cytotoxicity on normal cells; assay type: cell-based
Method: as §1, §2, §3, §4

[5] = background art; cited from earlier work
[6] = system: lung cancer cell line A549; test: In vivo antitumor activity, lung cancer xenograft in nude mice; design: species or system mouse; Tumor weight: unit not given here; details: A549 model, once every 2 days, 8 doses
Text: The following are the in vivo activity studies conducted in different tumor-bearing mice:
A PBS negative control group was set up.

[7] = HEK293, 6.3 nM, 48 h, samples 1-3, 0.0063 µM
[8] = HEK293, 12.5 nM, 48 h, samples 1-3, 0.0125 µM
[9] = HEK293, 25.0 nM, 48 h, samples 1-3, 0.025 µM
[10] = HEK293, 50.0 nM, 48 h, samples 1-3, 0.05 µM
[11] = HEK293, 100.0 nM, 48 h, samples 1-3, 0.1 µM
[12] = HEK293, 200.0 nM, 48 h, samples 1-3, 0.2 µM
[13] = LO2, 6.3 nM, 48 h, samples 1-3, 0.0063 µM
[14] = LO2, 12.5 nM, 48 h, samples 1-3, 0.0125 µM
[15] = LO2, 25.0 nM, 48 h, samples 1-3, 0.025 µM
[16] = LO2, 50.0 nM, 48 h, samples 1-3, 0.05 µM
[17] = LO2, 100.0 nM, 48 h, samples 1-3, 0.1 µM
[18] = LO2, 200.0 nM, 48 h, samples 1-3, 0.2 µM

CC(C)[C@]12O[C@H]1[C@@H]1O[C@]13[C@]1(O[C@H]1C[C@H]1C4=C(CC[C@@]13C)C(=O)OC4)[C@@H]2O [TP, Triptolide]
concentration effectively inhibiting the proliferation of tumor cells [1]: 2 to 10 ng/mL | IC50 at 48 h ([2]; human, LO2 normal hepatocyte cells, normal hepatocytes LO2, MTT): 9.01 ± 0.25 nM | IC50 at 48 h ([2]; normal human embryonic kidney cells HEK293, MTT): 5.98 ± 0.21 nM | cell proliferation inhibition rate ([3]; HEK293, 3.1 nM, 48 h, samples 1-3, 0.0031 µM): 30.4489 and 32.7054 | cell proliferation inhibition rate [3, 7]: 53.1149 and 51.3265 | cell proliferation inhibition rate [3, 8]: 70.4830 and 71.1686 | cell proliferation inhibition rate [3, 9]: 73.0686 and 75.7495 | cell proliferation inhibition rate [3, 10]: 81.0372 | cell proliferation inhibition rate [3, 11]: 94.3972 and 99.2908 | cell proliferation inhibition rate [3, 12]: 95.3901 and 100.6383 | inhibition at 0.0031 µM ([3]; Homo sapiens, HEK293, 48 h, HEK293, 3.1 nM, 48 h, samples 1-3, read-out: cell proliferation inhibition rate): 35.1% | inhibition at 0.0063 µM ([3]; Homo sapiens, HEK293, 48 h, HEK293, 6.3 nM, 48 h, samples 1-3, read-out: cell proliferation inhibition rate): 59.9% | inhibition at 0.0125 µM ([3]; Homo sapiens, HEK293, 48 h, HEK293, 12.5 nM, 48 h, samples 1-3, read-out: cell proliferation inhibition rate): 69.3% | inhibition at 0.025 µM ([3]; Homo sapiens, HEK293, 48 h, HEK293, 25.0 nM, 48 h, samples 1-3, read-out: cell proliferation inhibition rate): 79.5% | inhibition at 0.05 µM ([3]; Homo sapiens, HEK293, 48 h, HEK293, 50.0 nM, 48 h, samples 1-3, read-out: cell proliferation inhibition rate): 89.5% | inhibition at 0.1 µM ([3]; Homo sapiens, HEK293, 48 h, HEK293, 100.0 nM, 48 h, samples 1-3, read-out: cell proliferation inhibition rate): 99.9% | inhibition at 0.2 µM ([3]; Homo sapiens, HEK293, 48 h, HEK293, 200.0 nM, 48 h, samples 1-3, read-out: cell proliferation inhibition rate): 98.3% | inhibition at 0.0031 µM ([4]; Homo sapiens, Hepatocyte, 48 h, LO2, 3.1 nM, 48 h, samples 1-3, read-out: cell proliferation inhibition rate): 21.4% | inhibition at 0.0063 µM ([4]; Homo sapiens, Hepatocyte, 48 h, LO2, 6.3 nM, 48 h, samples 1-3, read-out: cell proliferation inhibition rate): 32% | inhibition at 0.0125 µM ([4]; Homo sapiens, Hepatocyte, 48 h, LO2, 12.5 nM, 48 h, samples 1-3, read-out: cell proliferation inhibition rate): 66.4% | inhibition at 0.025 µM ([4]; Homo sapiens, Hepatocyte, 48 h, LO2, 25.0 nM, 48 h, samples 1-3, read-out: cell proliferation inhibition rate): 74.1% | inhibition at 0.05 µM ([4]; Homo sapiens, Hepatocyte, 48 h, LO2, 50.0 nM, 48 h, samples 1-3, read-out: cell proliferation inhibition rate): 88.7% | inhibition at 0.1 µM ([4]; Homo sapiens, Hepatocyte, 48 h, LO2, 100.0 nM, 48 h, samples 1-3, read-out: cell proliferation inhibition rate): 96.3% | inhibition at 0.2 µM ([4]; Homo sapiens, Hepatocyte, 48 h, LO2, 200.0 nM, 48 h, samples 1-3, read-out: cell proliferation inhibition rate): 94% | cell proliferation inhibition rate ([4]; LO2, 3.1 nM, 48 h, samples 1-3, 0.0031 µM): 23.3551 and 17.9111 | cell proliferation inhibition rate [4, 13]: 40.8401 and 42.6158 | cell proliferation inhibition rate [4, 14]: 59.2076 and 65.5783 | cell proliferation inhibition rate [4, 15]: 73.3084 and 73.3954 | cell proliferation inhibition rate [4, 16]: 87.4474 and 84.6990 | cell proliferation inhibition rate [4, 17]: 97.7552 and 82.0308 | cell proliferation inhibition rate [4, 18]: 99.8060 and 96.6312 | solubility in water [5]: insoluble in water | RTV ([6]; 10 μM tail vein): 26.1 ± 0.09 | T/C (%) ([6]; 10 μM tail vein): 51.81% | Tumor inhibition rate (%) ([6]; 10 μM tail vein): 27.27% | Tumor weight ([6]; 10 μM tail vein): 2.47 ± 0.08 | RTV ([6]; 30 μM tail vein): 17.91 ± 0.27 | T/C (%) ([6]; 30 μM tail vein): 31.59% | Tumor inhibition rate (%) ([6]; 30 μM tail vein): 48.48% | Tumor weight ([6]; 30 μM tail vein): 1.79 ± 0.19 | RTV ([6]; 50 μM tail vein): 10.92 ± 0.15 | T/C (%) ([6]; 50 μM tail vein): 89.93% | Tumor inhibition rate (%) ([6]; 50 μM tail vein): 63.64% | Tumor weight ([6]; 50 μM tail vein): 1.29 ± 0.27

AS1411: nucleolin aptamer, single-stranded oligonucleotide, SEQ ID NO: 1 GGTGGTGGTGGTTGTGGTGGTGGTGG
inhibitory effect on normal cells ([3]; HEK293): no significant inhibitory effect | cell proliferation inhibition rate [3, 7]: 1.4844 and 1.0633 and 2.0955 | cell proliferation inhibition rate [3, 8]: 2.3262 and 2.9846 and 3.9285 | cell proliferation inhibition rate [3, 9]: 4.6088 and 4.6251 and 5.5956 | cell proliferation inhibition rate [3, 10]: 5.9341 and 4.5183 and 7.0200 | cell proliferation inhibition rate [3, 11]: 9.5603 and 9.9858 and 6.6667 | cell proliferation inhibition rate [3, 12]: 13.0496 and 11.5603 and 7.0200 | inhibitory effect on normal cells ([4]; LO2): no significant inhibitory effect | cell proliferation inhibition rate [4, 13]: 2.1198 and 1.5844 and 2.2503 | cell proliferation inhibition rate [4, 14]: 3.1924 and 2.7446 and 2.0042 | cell proliferation inhibition rate [4, 15]: 4.5962 and 5.2695 and 5.1506 | cell proliferation inhibition rate [4, 16]: 7.3070 and 6.4174 and 7.0396 | cell proliferation inhibition rate [4, 17]: 7.6842 and 6.8369 and 7.5344 | cell proliferation inhibition rate [4, 18]: 8.3084 and 8.0987 and 13.5426 | RTV ([6]; 10 μM tail vein): 34.57 ± 0.18 | T/C (%) ([6]; 10 μM tail vein): 89.93% | Tumor inhibition rate (%) ([6]; 10 μM tail vein): 6.06% | Tumor weight ([6]; 10 μM tail vein): 3.16 ± 0.13 | RTV ([6]; 30 μM tail vein): 31.09 ± 0.27 | T/C (%) ([6]; 30 μM tail vein): 75.76% | Tumor inhibition rate (%) ([6]; 30 μM tail vein): 15.15% | Tumor weight ([6]; 30 μM tail vein): 2.88 ± 0.26 | RTV ([6]; 50 μM tail vein): 26.19 ± 0.38 | T/C (%) ([6]; 50 μM tail vein): 70.06% | Tumor inhibition rate (%) ([6]; 50 μM tail vein): 21.21% | Tumor weight ([6]; 50 μM tail vein): 2.61 ± 0.38
